Laboratory results reported in article PMC7960611, “A phase 1 study of crenigacestat (LY3039478), the Notch inhibitor, in Japanese patients with advanced solid tumors” (Investigational New Drugs, 2020).
Values joined by “and” are separate entries in the source; they are usually repeats but may differ in a detail not shown here. Identical values can stand only once. “Also recorded” adds a separate entry of the source. Like-named read-outs stand apart in the source and are kept apart here.

What was measured:
[1] = system: non-Japanese patients with advanced or metastatic cancers; set-up: method as in PMID 30060061; conditions: TIW during a 28-day cycle; cited from earlier work
[2] = system: advanced solid tumors in Japanese patients; assay: Efficacy assessment: tumor response (RECIST v1.1); format: in vivo, human
Procedure: Tumor response, including overall response rate, was measured using RECIST v1.1 [12] or the Response Assessment in Neuro-Oncology criteria for glioblastoma. Patient’s full extent of disease was also assessed via evaluation of performance status (ECOG). Where applicable, tumor measurements were performed by positron emission tomography response criteria of the European Organization for Research and Treatment of Cancer, as well as evaluation of tumor markers. To confirm objective responses, all lesions were radiologically assessed and the same radiologic method used at baseline and for the initial response determination was repeated at least 4 weeks following the initial observation of an objective response.

[3] = system: Japanese patients with advanced solid tumors; assay: Safety assessment: adverse events (CTCAE v 4.0), DLT/DLET, phase 1 dose escalation; format: in vivo, human
Procedure: The study consisted of 2 dose levels of crenigacestat (25 mg and 50 mg), administered orally TIW prior to a meal. A cycle was defined as 28 days. Patients were admitted to the investigational site for 4 weeks through the entire first cycle but were discharged and managed on an outpatient basis on or after day 15 upon investigator discretion. The planned duration of treatment was not fixed. Treatment continued until disease progression, development of unacceptable toxicity, or any other discontinuation criteria were met.
Data were evaluated on an ongoing basis until the tolerability of crenigacestat for 50 mg was confirmed. Safety data, in particular adverse events (AEs), were the primary criteria for dose escalation. Dose escalation was driven for each treatment combination using the 3 + 3 method. Transition of dose level (from 25 to 50 mg) proceeded if the frequency of dose-limiting toxicity (DLT) observed in cycle 1 was <33% of patients in the first dose level (25 mg). For DLTs, an evaluable patient was defined as a patient who received ≥75% of the planned dose in cycle 1 or a patient who experienced DLT in cycle 1.
Adverse events were collected throughout the study and coded using Medical Dictionary for Regulatory Activities (MedDRA) terms (Version 22.0). […]

[4] = Pharmacokinetics: plasma concentrations by LC-MS/MS, noncompartmental analysis; format: in vivo; conditions: human; for AUC(0-inf) / Cmax / AUC(0-t): geometric mean (%CV); for AUC(0-t): read-out: AUC0–48
Procedure: All patients who received at least 1 dose of the study drug, and had sufficient samples collected, were included in the PK analysis. […] Plasma concentrations of crenigacestat were quantified using a validated liquid chromatography-tandem mass spectrometry (LC-MS/MS) assay. The PK parameters for crenigacestat were calculated by standard noncompartmental methods of analysis. The primary PK parameters for analysis were maximum plasma concentration (Cmax) and area under the plasma concentration-time curve (AUC) from time zero to infinity or over 1 dosing interval at steady state of crenigacestat.

[5] = po, 25 mg, Day 1 (Dose 1), 25 mg oral TIW
[6] = po, 25 mg, Day 22 (Dose 10), 25 mg oral TIW
[7] = po, 50 mg, Day 1 (Dose 1), 50 mg oral TIW
[8] = po, 50 mg, Day 22 (Dose 10), 50 mg oral TIW

For `C[C@H](NC(=O)CCC(F)(F)F)C(=O)N[C@@H]1C(=O)N(CCO)c2ncccc2-c2ccccc21` [Crenigacestat, crenigacestat], the “Recommended phase 2 dose, monotherapy” value [1] is given as 50 mg, the “Complete or partial response to the treatment” value ([2]; 25 mg and 50 mg oral TIW, all patients) is given as “None of the patients had a complete or partial response; also recorded: no partial or complete responses” and the “Best overall response: Complete response (CR)” value ([2]; 25 mg oral TIW (n = 4)) is given as 0 n (%). For the same compound, the “Best overall response: Partial response (PR)” value ([2]; 25 mg oral TIW (n = 4)) was 0 n (%), the “Best overall response: Progressive disease” value ([2]; 25 mg oral TIW (n = 4)) was 4 (100.0) n (%) and the “Disease control rate (CR/PR/SD)” value ([2]; 25 mg oral TIW (n = 4)) was 0 n (%). The “Best overall response: Complete response (CR)” value ([2]; 50 mg oral TIW (n = 7)) was 0 n (%), the “Best overall response: Partial response (PR)” value ([2]; 50 mg oral TIW (n = 7)) was 0 n (%) and the “Best overall response: Progressive disease” value ([2]; 50 mg oral TIW (n = 7)) was 6 (85.7) n (%). The “Disease control rate (CR/PR/SD)” value ([2]; 50 mg oral TIW (n = 7)) was 1 (14.3) n (%), the “Duration of stable disease” value ([2]; one patient with a desmoid tumor, 50-mg treatment arm) was 22.5 months and 22.47 months and the Tumor size shrinkage ([2]; one patient with a desmoid tumor, 50-mg treatment arm, first 8 cycles) was 22.4% and 22.37%. The “Serious adverse events (SAEs), discontinuation or death due to an AE” value ([3]; both treatment arms, on treatment or within 30 days of discontinuation) was “no patients who reported any serious adverse events (SAEs), discontinued study treatment due to an adverse event (AEs) or SAE, or died due to an AE”, the “Recommended dose in Japanese patients” value ([3]; human, in vivo, po, 28 days) was 50 mg and the AUC(0-inf) ([4]; Day 1 (Dose 1), 25 mg oral TIW) was 1480 ng·h/mL. It also gave an AUC(0-inf) ([4]; Day 1 (Dose 1), 50 mg oral TIW) of 3080 ng·h/mL, a Tmax ([4]; oral, postdose, each dose level, read-out: Median time to maximum plasma concentration (tmax)) of ~2 h and a half-life ([4]; po, 25 mg and 50 mg oral TIW, read-out: Mean t1/2 (converted)) of ~4 h. It also gave a Cmax [4, 5] of 324 ng/mL, an AUC(0-t) [4, 5] of 1480 ng·h/mL and a Tmax ([4]; po, 25 mg, Day 1 (Dose 1), 25 mg oral TIW, read-out: tmax, median (range)) of 1.92 h. It also gave a half-life ([4]; po, 25 mg, Day 1 (Dose 1), 25 mg oral TIW, read-out: t½, geometric mean (range) (converted)) of 3.64 h, a Cmax [4, 6] of 429 ng/mL and an AUC(0-t) [4, 6] of 2070 ng·h/mL. The Tmax ([4]; po, 25 mg, Day 22 (Dose 10), 25 mg oral TIW, read-out: tmax, median (range)) was 1.88 h, the half-life ([4]; po, 25 mg, Day 22 (Dose 10), 25 mg oral TIW, read-out: t½, geometric mean (range) (converted)) was 4.19 h and the Cmax [4, 7] was 670 ng/mL. The AUC(0-t) [4, 7] was 3080 ng·h/mL, the Tmax ([4]; po, 50 mg, Day 1 (Dose 1), 50 mg oral TIW, read-out: tmax, median (range)) was 1.93 h and the half-life ([4]; po, 50 mg, Day 1 (Dose 1), 50 mg oral TIW, read-out: t½, geometric mean (range) (converted)) was 3.89 h. For the same compound, the Cmax [4, 8] was 416 ng/mL, the AUC(0-t) [4, 8] was 2090 ng·h/mL and the Tmax ([4]; po, 50 mg, Day 22 (Dose 10), 50 mg oral TIW, read-out: tmax, median (range)) was 1.94 h. It also gave a half-life ([4]; po, 50 mg, Day 22 (Dose 10), 50 mg oral TIW, read-out: t½, geometric mean (range) (converted)) of 3.67 h.
